Measurements as given in PubChem BioAssay AID1996.
≈ marks a conversion by molar mass, not a printed value.

settings: buffer; pH 7.4; 200.0 µM

Row | Compound | solubility kinetic [µg/mL]
1 | Cc1c(C(=O)O)c(=O)n(-c2ccccc2)n1-c1ccccc1 | > 44.1
2 | Nc1cccc2c1C(=O)N(CCOc1ccc(F)cc1)C2=O | 8.4 (≈ 28 µM)
3 | O=C(NCc1ccc2c(c1)OCO2)C1CCCCC1 | > 39.2
4 | O=C(Nc1ccccc1C(F)(F)F)c1ccc2nccnc2c1 | > 47.6
5 | CCCCNC(=O)c1cc2c(=O)n3cccc(C)c3nc2s1 | 1.3 (≈ 4.12 µM)
6 | CCOc1ccc(N=Cc2c(O)n(Cc3ccccc3)c(=S)[nH]c2=O)cc1 | 0.5 (≈ 1.31 µM)
7 | COc1ccccc1CNC(=O)COC(=O)Cc1cccs1 | > 47.9
8 | CC(C)(C)NC(=O)N1CCn2cccc2C1c1ccccc1F (stereo not given) | 40 (≈ 127 µM)
9 | O=C(COC(=O)/C=C/c1ccccc1Cl)NCc1ccco1 | 14.4 (≈ 45 µM)
10 | CCSc1ncc(Cl)c(C(=O)Nc2cc(C)ccc2C)n1 | < 0.2
11 | Cc1nonc1NC(=O)CSc1ccccn1 | > 37.5
12 | O=C(c1ncc[nH]1)c1ccccc1Cl | > 31
13 | Cc1cc(CNC(=O)c2cccnc2Cl)c2ccccc2n1 | 39.1 (≈ 125 µM)
14 | CCc1ccc(N2CN(CCc3ccccc3)CNC2=S)cc1 | 1.6 (≈ 4.92 µM)
15 | CCCc1nnc(NC(=O)CCC(=O)NC2CC2)s1 | > 42.4
16 | CCOC(=O)C1CCN(CC(=O)Nc2ccc(OC)c(S(=O)(=O)N3CCCCC3)c2)CC1 | > 70.1
17 | Cc1ccc(S(=O)(=O)Nc2nc3ccc(N)cc3s2)cc1 | 45.8 (≈ 143 µM)
18 | COc1cccc(C(=O)OCC(=O)N2CCC(Cc3ccccc3)CC2)c1OC | 28.1 (≈ 70.7 µM)
19 | C=CCOc1ccc(CN(C)C(=O)C2CCCO2)cc1 (stereo not given) | > 41.3
20 | CCn1cc(C(=O)NCc2ccccc2F)c(=O)c2ccc(C)nc21 | 2.9 (≈ 8.55 µM)

Row | Compound | solubility kinetic [µg/mL]
21 | CC1Cc2ccccc2N1C(=O)CN1CCC(C(N)=O)CC1 (stereo not given) | > 45.2
22 | Cl.FC(F)(F)c1cccc(C2NCc3ccccc3-n3cccc32)c1 (stereo not given) | 3.9
23 | COc1ccc(C(=O)NCC(=O)N/N=C/c2cccnc2)cc1 | > 46.8
24 | CCCOc1ccc(/C=C/C(=O)N2CCOCC2)cc1 | > 41.3
25 | O=C(/C=C/c1ccc2c(c1)OCO2)NC1CCCC1 | 31.4 (≈ 121 µM)
26 | CCCNc1nc(OC)nc(N2CC3CC(C2)c2cccc(=O)n2C3)n1 (stereo not given) | 50.6 (≈ 142 µM)
27 | CCNC(=O)N1CCC(c2nc3ccccc3s2)CC1 | > 43.4
28 | N#Cc1c(C(F)(F)F)cc(=O)n2c1[nH]c1ccccc12 | > 41.6
29 | Nc1nc(CCl)nc(N(c2ccccc2)c2ccccc2)n1 | 7.5 (≈ 24.1 µM)
30 | Cc1csc2c(N(C)CCO)ncnc12 | > 33.5
31 | COc1ccc(N2CCN(c3cc(C)c4ccccc4n3)CC2)cc1 | < 0.2
32 | Nc1ncnc(Nc2ccccc2Cl)n1 | 32.8 (≈ 148 µM)
33 | O=C(NCC(=O)N1CCN(c2ccccc2O)CC1)c1cccs1 | > 51.8
34 | CNC(=O)Nc1cccc(-c2cc(-c3c(Cl)cccc3Cl)no2)c1 | < 0.3
35 | CNC(=S)NCCc1c[nH]c2ccc(OC)cc12 | > 39.5
36 | O=[N+]([O-])c1ccc(COc2ncnc3ccccc23)cc1 | 27.7 (≈ 98.5 µM)
37 | O=[N+]([O-])c1cccc2c1ccc1ncccc12 | 1.3 (≈ 5.8 µM)
38 | O=S(=O)(Nc1nc2ccccc2nc1Cl)c1ccc(F)cc1 | > 50.7
39 | O=C(CSc1ccccn1)N1CCc2ccccc21 | 3.7 (≈ 13.7 µM)
40 | CCCCc1ccc(NC(=O)C2CCCC2)cc1 | 1.9 (≈ 7.74 µM)

Row | Compound | solubility kinetic [µg/mL]
41 | Cc1ccc2oc(=O)c(/C=C(\O)C(C)(C)C)nc2c1 | 28.3 (≈ 109 µM)
42 | O=C(COC(=O)c1ccc(Br)c(S(=O)(=O)N2CCOCC2)c1)NCCc1ccccc1 | 24.1 (≈ 47.1 µM)
43 | COc1ccccc1C1CCN(c2ccc(CO)cc2[N+](=O)[O-])CC1 | 7.8 (≈ 22.8 µM)
44 | COCCCNC(=S)N/N=C/c1ccc(O)cc1 | > 40.1
45 | CC1CCN(C(=O)c2ccc(N3CCOCC3)c([N+](=O)[O-])c2)CC1 | > 50
46 | Cc1ccc(/C=C/C(=O)NCCc2cccc(Cl)c2)o1 | 5.1 (≈ 17.6 µM)
47 | CCNc1nc(NC(C)CC)nc(ON=C(C)C)n1 (stereo not given) | > 40
48 | Cc1ccc(C(=O)CCC(=O)NCc2ccc(Cl)cc2)cc1 | 9.7 (≈ 30.7 µM)
49 | CCOc1ccc(S(=O)(=O)N(C)C2CCCCC2)cc1 | 18.1 (≈ 60.9 µM)
50 | O=[N+]([O-])c1ccccc1S(=O)(=O)N1CCN(Cc2ccccc2)CC1 | 24.4 (≈ 67.5 µM)
51 | N=c1oc2ccccc2cc1C(=O)Nc1ccccc1 | 0.6 (≈ 2.27 µM)
52 | CN1CCN(CCC(=O)Nc2ccc(Br)cc2)CC1 | 48.5 (≈ 149 µM)
53 | COc1ccc(NC(=O)CCCSc2ccccc2)cc1 | 17.2 (≈ 57.1 µM)
54 | CN(C)c1cc[n+](CC(=O)c2cccs2)cc1.[Cl-] | 41.7
55 | COc1ccc(N2CCN(C(CNS(=O)(=O)c3ccc(C)cc3)c3ccccc3)CC2)cc1 (stereo not given) | 1.4 (≈ 3.01 µM)
56 | Cc1c(/C=N/O)sc2ccccc12 | 10.8 (≈ 56.5 µM)
57 | Cc1[nH]c2c(C)cccc2c1CN1CCC(CO)(Cc2ccccc2)CC1 | 28.8 (≈ 79.4 µM)
58 | Cc1cc(C(=O)COC(=O)C(C)NC(N)=O)c(C)n1Cc1ccco1 (stereo not given) | 45.7 (≈ 132 µM)
59 | N#Cc1c(-c2cccnc2)cc(-c2ccccc2)nc1N | 2.4 (≈ 8.81 µM)
60 | CC(C)(C)c1ccc(C(=O)C2CCCN(C3CCC3)C2)cc1 (stereo not given) | 37.9 (≈ 127 µM)
